Laboratory results published in publication PMC7156458, “Synthetic biology based construction of biological activity-related library of fungal decalin-containing diterpenoid pyrones” (Nature Communications, 2020).

Biological target: Aβ42 (Homo sapiens, UniProt P05067)
Experiment: Th-T (thioflavin-T) assay of Aβ42 aggregation
Format: biochemical
Details: for Th-T assay plate reading, mean of three wells (Supplementary Fig. 47): source data, Ab alone and No Ab as controls

Aβ42, sequence (P05067 672-713): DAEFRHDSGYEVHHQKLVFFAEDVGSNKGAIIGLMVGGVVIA

## C=C1CCC2C(C)(CCC=C(C)C)C(O)CCC2(C)C1Cc1c(O)c(C)c(C)oc1=O (stereo not drawn) [Compound 4]
Aβ42 aggregation time course, reading M117
  Th-T fluorescence, mean of three wells: 2.764
Aβ42 aggregation time course, reading M118
  Th-T fluorescence, mean of three wells: 2.782
Aβ42 aggregation time course, reading M119
  Th-T fluorescence, mean of three wells: 2.76
Aβ42 aggregation time course, reading M120
  Th-T fluorescence, mean of three wells: 2.773
Aβ42 aggregation time course, reading M121
  Th-T fluorescence, mean of three wells: 2.751
Aβ42 aggregation time course, reading M122
  Th-T fluorescence, mean of three wells: 2.756
Aβ42 aggregation time course, reading M123
  Th-T fluorescence, mean of three wells: 2.7381
Aβ42 aggregation time course, reading M124
  Th-T fluorescence, mean of three wells: 2.734
Aβ42 aggregation time course, reading M125
  Th-T fluorescence, mean of three wells: 2.771
Aβ42 aggregation time course, reading M126
  Th-T fluorescence, mean of three wells: 2.764
Aβ42 aggregation time course, reading M127
  Th-T fluorescence, mean of three wells: 2.744
Aβ42 aggregation time course, reading M128
  Th-T fluorescence, mean of three wells: 2.737
Aβ42 aggregation time course, reading M129
  Th-T fluorescence, mean of three wells: 2.759
Aβ42 aggregation time course, reading M130
  Th-T fluorescence, mean of three wells: 2.729
Aβ42 aggregation time course, reading M131
  Th-T fluorescence, mean of three wells: 2.75
Aβ42 aggregation time course, reading M132
  Th-T fluorescence, mean of three wells: 2.778
Aβ42 aggregation time course, reading M133
  Th-T fluorescence, mean of three wells: 2.76
Aβ42 aggregation time course, reading M134
  Th-T fluorescence, mean of three wells: 2.744
Aβ42 aggregation time course, reading M135
  Th-T fluorescence, mean of three wells: 2.723
Aβ42 aggregation time course, reading M136
  Th-T fluorescence, mean of three wells: 2.752
Supplementary Fig. 47, reading M137
  Th-T fluorescence, mean of three wells: 2.732
Supplementary Fig. 47, reading M138
  Th-T fluorescence, mean of three wells: 2.752
Supplementary Fig. 47, reading M139
  Th-T fluorescence, mean of three wells: 2.7362
Supplementary Fig. 47, reading M140
  Th-T fluorescence, mean of three wells: 2.723
Supplementary Fig. 47, reading M141
  Th-T fluorescence, mean of three wells: 2.765
Supplementary Fig. 47, reading M142
  Th-T fluorescence, mean of three wells: 2.731
Supplementary Fig. 47, reading M143
  Th-T fluorescence, mean of three wells: 2.798
Supplementary Fig. 47, reading M144
  Th-T fluorescence, mean of three wells: 2.748
Supplementary Fig. 47, reading M145
  Th-T fluorescence, mean of three wells: 2.777
Measurement M1
  Th-T assay plate reading, mean of three wells (Supplementary Fig. 47): 0.3186
Measurement M2
  Th-T assay plate reading, mean of three wells (Supplementary Fig. 47): 0.3159
Measurement M3
  Th-T assay plate reading, mean of three wells (Supplementary Fig. 47): 0.3554
Measurement M4
  Th-T assay plate reading, mean of three wells (Supplementary Fig. 47): 0.4086
Measurement M5
  Th-T assay plate reading, mean of three wells (Supplementary Fig. 47): 0.4658
Measurement M6
  Th-T assay plate reading, mean of three wells (Supplementary Fig. 47): 0.5438
Measurement M7
  Th-T assay plate reading, mean of three wells (Supplementary Fig. 47): 0.6121
Measurement M8
  Th-T assay plate reading, mean of three wells (Supplementary Fig. 47): 0.6677
Measurement M9
  Th-T assay plate reading, mean of three wells (Supplementary Fig. 47): 0.6972
Measurement M10
  Th-T assay plate reading, mean of three wells (Supplementary Fig. 47): 0.7395
Measurement M11
  Th-T assay plate reading, mean of three wells (Supplementary Fig. 47): 0.7934
Measurement M12
  Th-T assay plate reading, mean of three wells (Supplementary Fig. 47): 0.8591
Measurement M13
  Th-T assay plate reading, mean of three wells (Supplementary Fig. 47): 0.9703
Measurement M14
  Th-T assay plate reading, mean of three wells (Supplementary Fig. 47): 1.131
Measurement M15
  Th-T assay plate reading, mean of three wells (Supplementary Fig. 47): 1.366
Measurement M16
  Th-T assay plate reading, mean of three wells (Supplementary Fig. 47): 1.644
Reading M17, Supplementary Fig. 47 source data
  Th-T fluorescence, mean of three wells: 1.91
time-course reading M97, Supplementary Fig. 47 source data
  Th-T fluorescence, mean of three wells: 2.7952
time-course reading M98, Supplementary Fig. 47 source data
  Th-T fluorescence, mean of three wells: 2.787
time-course reading M99, Supplementary Fig. 47 source data
  Th-T fluorescence, mean of three wells: 2.818
time-course reading M100, Supplementary Fig. 47 source data
  Th-T fluorescence, mean of three wells: 2.783
time-course reading M101, Supplementary Fig. 47 source data
  Th-T fluorescence, mean of three wells: 2.764
time-course reading M102, Supplementary Fig. 47 source data
  Th-T fluorescence, mean of three wells: 2.765
time-course reading M103, Supplementary Fig. 47 source data
  Th-T fluorescence, mean of three wells: 2.763
time-course reading M104, Supplementary Fig. 47 source data
  Th-T fluorescence, mean of three wells: 2.782
time-course reading M105, Supplementary Fig. 47 source data
  Th-T fluorescence, mean of three wells: 2.776
time-course reading M106, Supplementary Fig. 47 source data
  Th-T fluorescence, mean of three wells: 2.782
time-course reading M107, Supplementary Fig. 47 source data
  Th-T fluorescence, mean of three wells: 2.786
time-course reading M108, Supplementary Fig. 47 source data
  Th-T fluorescence, mean of three wells: 2.803
time-course reading M109, Supplementary Fig. 47 source data
  Th-T fluorescence, mean of three wells: 2.779
time-course reading M110, Supplementary Fig. 47 source data
  Th-T fluorescence, mean of three wells: 2.789
time-course reading M111, Supplementary Fig. 47 source data
  Th-T fluorescence, mean of three wells: 2.786
time-course reading M112, Supplementary Fig. 47 source data
  Th-T fluorescence, mean of three wells: 2.79
time-course reading M113, Supplementary Fig. 47 source data
  Th-T fluorescence, mean of three wells: 2.795
time-course reading M114, Supplementary Fig. 47 source data
  Th-T fluorescence, mean of three wells: 2.781
time-course reading M115, Supplementary Fig. 47 source data
  Th-T fluorescence, mean of three wells: 2.739
time-course reading M116, Supplementary Fig. 47 source data
  Th-T fluorescence, mean of three wells: 2.771
